Tests used:
[1] = biological target: T1, Serotonin 4 (5-HT4) Receptors (Cavia porcellus, UniProt O70528); assay: Binding Assay on Serotonin 4 (5-HT4) Receptors ([3H]-GR113808, striatum membrane fractions); parameters: species or system guinea pig (Std-Hartley); conditions: 50% inhibition of specific binding of 0.1 nM [3H]-GR113808; 37° C., 30 min; test compounds are fumarates except numbers marked ** (62, 72, 74: free bases)
T1 construct: the striatum was dissected; from tissue; host or cells: guinea pig (Std-Hartley) brain striatum, membrane fractions
T1 sequence (O70528 whole entry): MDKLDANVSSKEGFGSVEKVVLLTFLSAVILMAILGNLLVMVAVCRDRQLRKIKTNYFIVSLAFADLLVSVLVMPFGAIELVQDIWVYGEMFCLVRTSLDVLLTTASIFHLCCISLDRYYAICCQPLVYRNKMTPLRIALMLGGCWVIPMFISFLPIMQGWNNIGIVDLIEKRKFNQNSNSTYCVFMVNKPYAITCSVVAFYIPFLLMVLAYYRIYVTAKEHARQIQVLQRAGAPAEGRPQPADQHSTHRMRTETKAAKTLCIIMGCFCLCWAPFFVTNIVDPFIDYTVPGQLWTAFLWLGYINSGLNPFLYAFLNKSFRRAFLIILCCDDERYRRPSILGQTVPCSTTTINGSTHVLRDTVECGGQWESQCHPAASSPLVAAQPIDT
Experimental: Std-Hartley guinea pigs weighing 300-400 g were decapitated, and the brain thereof was immediately taken out, and the striatum was dissected. To the tissue thus obtained was added 15-times volume of Hepes buffer (50 mM, pH7.4, 4° C.), homogenized in a Teflon homogenizer, and centrifuged at 48,000×g at 4° C. for 15 minutes. The pellet was suspended in the same Hepes buffer in a volume of 1 ml per 30 mg of the wet tissues to give receptor membrane fractions.
The reaction was terminated by rapid vacuum filtration and washing (3×4 ml) with ice-cold 50 mM Tris-HCl buffer (pH 7.7) through Whatman GF/B filter paper using a Brandel cell harvester. Prior to the filtration, the filter to be used was presoaked in a 0.1% solution of polyethylenimine for one hour. The radioactivity on the filter was determined with by ACS-II scintillation cocktail by a liquid scintillation counter.

[2] = system: Mice of Std-ddY strain (evacuation); assay: Assay on Evacuation in Mice (fecal pellets, oral); assay type: in vivo, mouse (Std-ddY, male); parameters: key: -: Inactive; +: Moderately stimulated (P<0.05); ++: Markedly stimulated (p<0.01); conditions: 1 mg/kg oral; fecal pellets at 30, 60 and 120 minutes; Dunnett's test; fumarates except numbers marked ** (25, 86: free bases)
Experimental: Male mice of Std-ddY strain weighing 25-30 g were used. Free access to food and water was allowed up to the beginning of the procedure.
The mice (each group: five mice) were placed in a mesh bottom cage for fasting, and they were allowed for acclimation to new environment for about one hour prior to the start of the experiment. A test compound, which was previously suspended in the 0.5% tragacanth solution, was administered orally to the mice at a dose of 1 mg/kg. The fecal pellets were counted and collected at 30, 60 and 120 minutes after the treatment of a test compound, and weighed.
The statistical judgment of efficacy was carried out between the control group and the treated group, and determined by Dunnett's test.

Structure (SMILES)	IC50 [1] [nM]	Effect (evacuation) [2]
CCN(CC)C(=O)N1CCC(CN2CCC(NC(=O)c3cc(Cl)c(N)cc3OC)CC2)CC1 [Example 2]	11.9	+
CCN(CC)C(=S)N1CCC(CN2CCC(NC(=O)c3cc(Cl)c(N)cc3OC)CC2)CC1 [Example 11]	6.8	
COc1cc(N)c(Cl)cc1C(=O)NC1CCN(CC2CCN(S(=O)(=O)N(C)C)CC2)CC1 [Example 16]	14.2	
CCN(CC)C(=O)N1CCC(CN2CCC(NC(=O)c3cc(Cl)c(N)c4c3OCC4)CC2)CC1 [Example 19, 4-amino-5-chloro-N-[1-(1-diethylcarbamoyl-4-piperidinylmethyl)-4-piperidinyl]-2,3-dihydrobenzo[b]furan-7-carboxamide]	2.7	++
COc1cc(N)c(Cl)cc1C(=O)NC1CCN(CC2CCN(C(=O)Nc3ccc(Cl)cc3)CC2)CC1 [Example 38]	1.6	
Nc1c(Cl)cc(C(=O)NC2CCN(CC3CCN(C(=O)Nc4ccccc4)CC3)CC2)c2c1CCO2 [Example 52, 4-amino-5-chloro-N-[1-(1-phenylcarbamoyl-4-piperidinylmethyl)-4-piperidinyl]-2,3-dihydrobenzo[b]furan-7-carboxamide]	0.36	++
COc1cc(N)c(Cl)cc1C(=O)NC1CCN(CC2CCN(C(=O)c3ccc(C)cc3)CC2)CC1 [Example 61]	4.6	
COc1cc(N)c(Cl)cc1C(=O)NC1CCN(CC2CCN(C(=O)c3cc(Cl)c(N)cc3OC)CC2)CC1 [Example 62]	1.4	
COCC(=O)N1CCC(CN2CCC(NC(=O)c3cc(Cl)c(N)cc3OC)CC2)CC1 [Example 63]	20.7	
COCCC(=O)N1CCC(CN2CCC(NC(=O)c3cc(Cl)c(N)cc3OC)CC2)CC1 [Example 64]		+
COc1cc(N)c(Cl)cc1C(=O)NC1CCN(CC2CCN(C(=O)c3ccc(Cl)cc3)CC2)CC1 [Example 73]	4.2	
COc1cc(N)c(Cl)cc1C(=O)NC1CCN(CC2CCN(C(C)=O)CC2)CC1 [Example 75]		++
COC(=O)N1CCC(CN2CCC(NC(=O)c3cc(Cl)c(N)cc3OC)CC2)CC1 [Example 76]		++
CCOC(=O)N1CCC(CN2CCC(NC(=O)c3cc(Cl)c(N)cc3OC)CC2)CC1 [Example 77]		++
COc1cc(N)c(Cl)cc1C(=O)NC1CCN(CC2CCN(C=O)CC2)CC1 [Example 79, 4-amino-5-chloro-N-[1-(1-formyl-4-piperidinylmethyl) -4-piperidinyl]-2-methoxybenzamide]		+
COc1cc(N)c(Cl)cc1C(=O)NC1CCN(CC2CCN(CC(=O)C(C)(C)C)CC2)CC1 [Example 87]	11.9	
COc1cc(N)c(Cl)cc1C(=O)NC1CCN(CC2CCN(CCCC(C)=O)CC2)CC1 [Example 88]	7.2	
CCOC(=O)CN1CCC(CN2CCC(NC(=O)c3cc(Cl)c(N)cc3OC)CC2)CC1 [Example 90]		+
CCCCC(C(=O)OCC)N1CCC(CN2CCC(NC(=O)c3cc(Cl)c(N)cc3OC)CC2)CC1 (stereo not drawn) [Example 98]	12.5	
CCC(=O)CN1CCC(CN2CCC(NC(=O)c3cc(Cl)c(N)c4c3OCC4)CC2)CC1 [Example 99, 4-amino-N-[1-[1-(2-butanon-1-yl)-4-piperidinylmethyl]-4-piperidinyl]-5-chloro-2,3-dihydrobenzo[b]furan-7-carboxamide]	3.9	

Further compounds by falling IC50 [1], results first:

IC50 [1] [nM]	Structure (SMILES)	Effect (evacuation) [2]
19.1	COc1cc(N)c(Cl)cc1C(=O)NC1CCN(CC2CCN(C(=O)N3CCOCC3)CC2)CC1 [Example 13]	
18.2	COc1cc(N)c(Cl)cc1C(=O)NC1CCN(CC2CCN(CC(C)=O)CC2)CC1 [Example 85]	
18	COC(=O)CCCC(=O)N1CCC(CN2CCC(NC(=O)c3cc(Cl)c(N)cc3OC)CC2)CC1 [Example 69]	
15.5	COc1cc(N)c(Cl)cc1C(=O)NC1CCN(CC2CCN(C(=O)N(C(C)C)C(C)C)CC2)CC1 [Example 3]	
14.2	COc1cc(N)c(Cl)cc1C(=O)NC1CCN(CC2CCN(C(C)C(C)=O)CC2)CC1 (stereo not drawn) [Example 84, 4-amino-N-[1-[1-(2-butanon-3-yl)-4-piperidinylmethyl]-4-piperidinyl]-5-chloro-2-methoxybenzamide]	
11.9	CCN(C)C(=O)N1CCC(CN2CCC(NC(=O)c3cc(Cl)c(N)cc3OC)CC2)CC1 [Example 4, 4-amino-5-chloro-N-[1-[1-(N-ethyl-N-methylcarbamoyl)-4-piperidinylmethyl]-4-piperidinyl]-2-methoxybenzamide]	++
9.8	COc1cc(N)c(Cl)cc1C(=O)NC1CCN(CC2CCN(C(N)=O)CC2)CC1 [Example 53, 4-amino-N-[1-(1-carbamoyl-4-piperidinylmethyl)-4-piperidinyl]-5-chloro-2-methoxybenzamide]	
9	COc1cc(N)c(Cl)cc1C(=O)NC1CCN(CC2CCN(C(=O)c3cc(OC)c(OC)c(OC)c3)CC2)CC1 [Example 74]	
8.9	COc1cc(N)c(Br)cc1C(=O)NC1CCN(CC2CCN(C(=O)N3CCCC3)CC2)CC1 [Example 34, 4-amino-5-bromo-2-methoxy-N-[1-[1-(1-pyrrolidinecarbonyl)-4-piperidinylmethyl]-4-piperidinyl]benzamide]	++
7.6	CCCN(C)C(=O)N1CCC(CN2CCC(NC(=O)c3cc(Cl)c(N)cc3OC)CC2)CC1 [Example 5]	
6.8	COc1cc(N)c(Cl)cc1C(=O)NC1CCN(CC2CCN(C(=O)c3ccccc3)CC2)CC1 [Example 72, 4-amino-N-[1-(1-benzoyl-4-piperidinylmethyl)-4-piperidinyl]-5-chloro-2-methoxybenzamide]	
6.5	CCC(=O)CCN1CCC(CN2CCC(NC(=O)c3cc(Cl)c(N)cc3OC)CC2)CC1 [Example 89]	
6.4	CCCNC(=O)N1CCC(CN2CCC(NC(=O)c3cc(Cl)c(N)cc3OC)CC2)CC1 [Example 42]	
6.3	COc1cc(N)c(Cl)cc1C(=O)NC1CCN(CC2CCN(C(=O)N(C)c3ccccc3)CC2)CC1 [Example 8, 4-amino-5-chloro-2-methoxy-N-[1-[1-(N-methyl-N-phenylcarbamoyl)-4-piperidinylmethyl]-4-piperidinyl]benzamide]	++
4.4	CCOc1cc(N)c(Cl)cc1C(=O)NC1CCN(CC2CCN(C(=O)N(CC)CC)CC2)CC1 [Example 27, 4-amino-5-chloro-N-[1-(1-diethylcarbamoyl-4-piperidinylmethyl)-4-piperidinyl]-2-ethoxybenzamide]	++
4.4	COc1cc(N)c(Cl)cc1C(=O)NC1CCN(CC2CCN(C(=O)NC3CCCC3)CC2)CC1 [Example 49]	
4.3	CC(C)Oc1cc(N)c(Cl)cc1C(=O)NC1CCN(CC2CCN(C(=O)N(C)C)CC2)CC1 [Example 30, 4-amino-5-chloro-N-[1-(1-dimethylcarbamoyl-4-piperidinylmethyl)-4-piperidinyl]-2-isopropoxybenzamide]	++
4.1	CCOC(=O)CCCN1CCC(CN2CCC(NC(=O)c3cc(Cl)c(N)cc3OC)CC2)CC1 [Example 92]	
3.9	COc1ccc(C(=O)N2CCC(CN3CCC(NC(=O)c4cc(Cl)c(N)cc4OC)CC3)CC2)cc1 [Example 60]	
3.2	CCOc1cc(N)c(Cl)cc1C(=O)NC1CCN(CC2CCN(C(=O)N3CCCC3)CC2)CC1 [Example 32]	+
2.3	CCOc1cc(N)c(Cl)cc1C(=O)NC1CCN(CC2CCN(C(=S)N(C)C)CC2)CC1 [Example 33, 4-Amino-5-chloro-N-[1-(1-dimethylthiocarbamoyl-4-piperidinylmethyl)-4-piperidinyl]-2-ethoxybenzamide]	
2.3	COc1ccc(NC(=O)N2CCC(CN3CCC(NC(=O)c4cc(Cl)c(N)cc4OC)CC3)CC2)cc1 [Example 39]	
1.9	COc1cc(N)c(Cl)cc1C(=O)NC1CCN(CC2CCN(C(=O)NC3CCCCCC3)CC2)CC1 [Example 51]	
1.7	COc1cc(N)c(Cl)cc1C(=O)NC1CCN(CC2CCN(C(=O)Nc3ccc(C)cc3)CC2)CC1 [Example 40]	
1.6	COc1cc(N)c(Cl)cc1C(=O)NC1CCN(CC2CCN(C(=O)NCc3ccccc3)CC2)CC1 [Example 47]	
1.1	COc1cc(N)c(Cl)cc1C(=O)NC1CCN(CC2CCN(C(=O)Nc3ccccc3)CC2)CC1 [Example 37, 4-amino-5-chloro-2-methoxy-N-[1-(1-phenylcarbamoyl-4-piperidinylmethyl)-4-piperidinyl]benzamide]	++
1	CCOC(=O)CCCN1CCC(CN2CCC(NC(=O)c3cc(Cl)c(N)c4c3OCC4)CC2)CC1 [Example 100, 4-amino-5-chloro-N-[1-[1-(3-ethoxycarbonylpropyl)-4-piperidinylmethyl]-4-piperidinyl]-2,3-dihydrobenzo[b]furan-7-carboxamide]	

Reference: patent US6294555A, “1-[(1-Substituted-4-piperidinyl)methyl]-4-piperidine derivative, process for producing the same, medicinal compositions containing the same and intermediates of these compounds” (Dainippon Pharmaceutical Co., Ltd., priority 1998, dated 2001)
